In ChEMBL document CHEMBL4043234, “Anticancer efficacy of p-dodecylaminophenol against high-risk and refractory neuroblastoma cells in vitro and in vivo” (Bioorg Med Chem Lett, 2017):
Activity calls are given as the source filed them. The calls are words filed in the database; no cut-off is given here.

Tests used:
IMR-32 [1] = assay: Induction of apoptosis in human IMR32 cells assessed as decrease in Bcl-2 mRNA expression level at 4 uM after 24 hrs by real-time PCR method relative to control; assay type: functional; design: scale not given: the % may be the effect or the level left
IMR-32 [2] = assay: Growth inhibition of human IMR32 cells at 0.1 uM after 24 hrs by MTT assay relative to control; assay type: functional; conditions: IMR-32, 24 h, read-out: GI
IMR-32 [3] = assay: Reduction in N-myc mRNA expression level in human IMR32 cells at 4 uM after 24 hrs by real-time PCR method relative to control; assay type: functional; design: scale not given: the % may be the effect or the level left
SK-N-AS [4] = assay: Cell cycle arrest in human SK-N-AS cells at 4 uM up to 72 hrs by propidium iodide staining based flow cytometry; assay type: functional
IMR-32 [5] = assay: Induction of apoptosis in human IMR32 cells assessed as decrease in Bcl-2 mRNA expression level at 4 uM after 8 hrs by real-time PCR method; assay type: functional, cell-based
IMR-32 [6] = assay: Growth inhibition of human IMR32 cells at 0.01 uM after 72 hrs by MTT assay relative to control; assay type: functional; conditions: IMR-32, 72 h, read-out: GI
SK-N-AS [7] = assay: Induction of apoptosis in human SK-N-AS cells assessed as increase in caspase-3 activity at 4 uM by CPP32 based colorimetric assay; assay type: functional, cell-based; conditions: TDE = time-dependent effect
IMR-32 [8] = assay: Growth inhibition of human IMR32 cells at 0.1 uM after 72 hrs by MTT assay relative to control; assay type: functional; conditions: IMR-32, 72 h, read-out: GI
SK-N-AS [9] = assay: Cell cycle arrest in human SK-N-AS cells assessed as increase in sub-G1 phase population at 4 uM after 24 hrs by propidium iodide staining based flow cytometry relative to control; assay type: functional
IMR-32 [10] = assay: Reduction in N-myc mRNA expression level in human IMR32 cells at 4 uM after 8 hrs by real-time PCR method; assay type: functional, cell-based
SK-N-AS [11] = assay: Induction of apoptosis in human SK-N-AS cells assessed as increase in caspase-3 activity at 4 uM after 24 hrs by CPP32 based colorimetric assay relative to control; assay type: functional
SK-N-AS [12] = assay: Growth inhibition of human SK-N-AS cells at 1 uM after 24 hrs by MTT assay relative to control; assay type: functional; conditions: read-out: GI
SK-N-AS [13] = assay: Induction of apoptosis in human SK-N-AS cells assessed as decrease in Bcl-2 mRNA expression level at 4 uM after 24 hrs by real-time PCR method relative to control; assay type: functional; design: scale not given: the % may be the effect or the level left
IMR-32 [14] = assay: Growth inhibition of human IMR32 cells at 0.4 uM after 72 hrs by MTT assay relative to control; assay type: functional; conditions: IMR-32, 72 h, read-out: GI
SK-N-AS [15] = assay: Growth inhibition of human SK-N-AS cells at 1 uM after 72 hrs by MTT assay relative to control; assay type: functional; conditions: read-out: GI
SK-N-AS [16] = assay: Growth inhibition of human SK-N-AS cells at 4 uM after 24 hrs by MTT assay relative to control; assay type: functional; conditions: read-out: GI
SK-N-AS [17] = assay: Growth inhibition of human SK-N-AS cells at 4 uM after 72 hrs by MTT assay relative to control; assay type: functional; conditions: read-out: GI
SK-N-AS [18] = assay: Induction of apoptosis in human SK-N-AS cells assessed as caspase-3 activity at 4 uM after 8 to 24 hrs by CPP32 based colorimetric assay; assay type: functional, cell-based
SK-N-AS [19] = assay: Cell cycle arrest in human SK-N-AS cells assessed as accumulation at sub-G1 phase at 4 uM after 24 hrs by propidium iodide staining based flow cytometry; assay type: functional

Compound	Activity (IMR-32 [1]) [%]	inhibition of growth at 0.1 µM (IMR-32 [2]) [%]	Activity (IMR-32 [3]) [%]	Activity (SK-N-AS [4])	Activity (IMR-32 [5])	inhibition of growth at 0.01 µM (IMR-32 [6]) [%]	Activity (SK-N-AS [7])	inhibition of growth at 0.1 µM (IMR-32 [8]) [%]	fold change (FC) (SK-N-AS [9])	Activity (IMR-32 [10])	fold change (FC) (SK-N-AS [11])	inhibition of growth at 1 µM (SK-N-AS [12]) [%]	Activity (SK-N-AS [13]) [%]	inhibition of growth at 0.4 µM (IMR-32 [14]) [%]	inhibition of growth at 1 µM (SK-N-AS [15]) [%]	inhibition of growth at 4 µM (SK-N-AS [16]) [%]	inhibition of growth at 4 µM (SK-N-AS [17]) [%]	Activity (SK-N-AS [18])	Activity (SK-N-AS [19])
CC1=C(/C=C/C(C)=C/C=C/C(C)=C/C(=O)Nc2ccc(O)cc2)C(C)(C)CCC1 [FENRETINIDE]	69	4	27	Active	inactive	15	Tde	17	5	inactive	4.7	2	62	27	10				
CCCCCCCCCCCC(=O)Nc1ccc(O)cc1																22	24		
CC1=C(/C=C/C(C)=C/C=C/C(C)=C/C(=O)O)C(C)(C)CCC1 [TRETINOIN]	67	9	13	Active	inactive	47		60		inactive		0		65	3			inactive	Active
